Test results reported in article PMC13492380, “Dissecting Structural and Functional Determinants of Microtubules Stabilization through Guided Chemical Modulation” (Journal of Medicinal Chemistry, 2026).
Like-named read-outs stand apart in the source and are kept apart here.

Legend:
[1] = system: HeLaβIII cells (overexpressing βIII tubulin isotype); experiment: MTT cytotoxicity assay, HeLaβIII; conditions: for IC50: Homo sapiens, 48 h, read-out: Cytotoxicity IC50 HeLaβIII; for R/S (resistant to sensitive ratio): IC50 HeLaβIII / IC50 HeLa
Description: Antiproliferative assays were performed as described. […] Then, increasing concentrations of drugs were added and incubated for 48 h prior to the reaction with the MTT solution. IC50 values were obtained by fitting the experimental data (absorbance at 570/690 nm) to a four-parameter logistic curve using SigmaPlot 14.5 software package (Systat Software, Inc., San Jose, CA, USA) and IC50 values were expressed as mean ± SEM from three independent experiments, each performed in duplicate.

A549 cells = experiment: MTT cytotoxicity assay, A549; format: cell-based; conditions: Homo sapiens, read-out: Cytotoxicity IC50 A549
Description: Antiproliferative assays were performed as described.

[2] = system: Tau441 interaction with MTs in axon-like processes of neuronally differentiated PC12 cells; experiment: Fluorescence decay after photoactivation (FDAP) of PAGFP-Tau441; format: cell-based, human
Text: Building on the role of Tau dynamics in axonal MT function, , we next used Tau as a structural sensitive neuronal MAP to assess whether drug-imposed MT lattice states alter MAP recognition. To this end, we initially performed fluorescence decay after photoactivation (FDAP) experiments to assess potential changes in the interaction of the longest human Central Nervous System Tau isoform (Tau441) with MTs in axon-like processes of model neurons. We tagged Tau at the N-terminus with photoactivatable GFP (PAGFP) and expressed it exogenously in PC12 cells differentiated into a neuronal phenotype (Figure A). After locally activating a subset of labeled Tau molecules in the middle of a process, we monitored FDAP over time in the activated region (Figure B). Tau gradually dissipated from the activation site.
To quantify changes in Tau’s effective diffusion constant (D eff) as a result of its dynamic interactions with MTs, we measured FDAP at various compound concentrations and fitted the resulting decay curves using a previously established reaction-diffusion model. […] Remarkably, the GDP-like MTs stabilized by compound 1b remain largely neutral with respect to Tau-MT interactions.
PC12 cells (originally obtained from J.A. Wagner, Harvard Medical School) were cultured in serum-DMEM (DMEM supplemented with 10% fetal bovine serum and antibiotics (100 U/ml penicillin and 100 μg/mL streptomycin)) at 37 °C with 10% CO2 in a humidified incubator. For live cell imaging, cells were transfected with the respective pRc/CMV expression vector using Lipofectamine 2000 (Thermo-Fisher Scientific, USA) as previously described. FDAP experiments were performed essentially as previously described. Briefly, cells expressing PAGFP-tagged Tau441 were plated on 35 mm glass-bottom culture dishes (MatTek, USA), transfected, and neuronally differentiated by medium exchange to serum-reduced DMEM containing 100 ng/mL 7S mouse NGF. After 3 days, the medium was exchanged to serum-reduced DMEM without phenol red with NGF, and the respective compound (or DMSO for carrier control) were added at the desired concentration. After 20 h, live cell imaging was performed using a laser scanning microscope (Nikon Eclipse Ti2-) equipped with a LU-N4 laser unit with 488 and 405 nm lasers and a Fluor 60× ultraviolet-corrected objective lens (NA 1.4) and a C2+scanner enclosed in an incubation chamber at 37 °C and 5% CO2. Photoactivation was performed with a 405 nm laser using the microscope software (NIS-Elements version AR 5.02.03). The following steps were performed in a photoactivation experiment. A transfected cell with a suitable process (minimum length 30 μm) was selected in the field of view (50 μm × 50 μm) and a preactivation image was saved at 488 nm excitation. The scan window was reduced to a 6-μm diameter activation spot (corresponding to 130 pixels), and photoactivation was performed in the center of the neurite using the 405 nm blue diode (laser intensity 1.0%; corresponding to an output of 30 μW) with two scans at a pixel dwell time of 4.08 μs (corresponding to a total activation time at the spot of 1.1 ms). The scan window was enlarged to the initial size, and the first scan was performed after 1 s with the 488 nm laser at the lowest practical laser intensity. Subsequent images were acquired at a rate of 1 frame/s. 112 images with a resolution of 256 × 256 pixels were collected per activated neurite. […] Effective diffusion constants were determined by fitting the fluorescence decay data from the photoactivation experiments using a one-dimensional diffusion model function for FDAP according to. All data sets were tested for normality using the D’Agostino-Pearson and Shapiro-Wilk tests. Statistical outliers were identified using the ROUT method. Equality was assessed using a F-test to compare variances. To compare different concentrations, statistically significant differences from control were determined by a one-way ANOVA with Dunnett’s post hoc test. […]

SMILES	IC50 [1] [µM]	R/S (resistant to sensitive ratio) [1]	IC50 (A549 cells; A549, 48 h) [µM]	effect on Tau's effective diffusion constant (D eff) / Tau-MT interaction ([2]; PC12 cells, 20 h treatment)	IC50 (A549 cells; A549, MTT, 48 h, mean ± SEM) [µM]	unbound Tau population ([2]; 20 nM PTX (control 7.5%)) [%]	decrease in the unbound Tau population ([2]; 20 nM PTX vs control) [%]	concentration with notable reduction of Tau's D eff ([2]; PC12 cells, 20 h treatment) [nM]
CC(=O)OC1C(=O)C2(C)C(OC(=O)CCCCC(=O)OC3CCc4ccccc43)CC3OCC3(OC(C)=O)C2C(OC(=O)c2ccccc2)C2(O)CC(OC(=O)C(O)C(NC(=O)c3ccccc3)c3ccccc3)C(C)=C1C2(C)C (centres unmarked) [1a, 7-O-(6″-O-(2‴,3‴-Dihydroinden-1‴-yl)hexanedioyl) Paclitaxel]	0.51 ± 0.08	3	0.51 ± 0.04	increasing Tau’s D eff				
COc1ccc2c(c1)CC(NC(=O)CCCCCCCC(=O)OC1CC3OCC3(OC(C)=O)C3C(OC(=O)c4ccccc4)C4(O)CC(OC(=O)C(O)C(NC(=O)c5ccccc5)c5ccccc5)C(C)=C(C(OC(C)=O)C(=O)C13C)C4(C)C)CC2 [1b, 7-O-((S)-9″-(7‴-Methoxy-1‴,2‴,3‴,4‴-tetrahydronaphthalen-2‴-yl)amino) −9″-oxononanoyl) Paclitaxel]	0.72 ± 0.08	7		did not significantly alter Tau-MT interactions	0.22 ± 0.02			
CC(=O)O[C@H]1C(=O)[C@@]2(C)[C@H]([C@H](OC(=O)c3ccccc3)[C@]3(O)C[C@H](OC(=O)[C@H](O)[C@@H](NC(=O)c4ccccc4)c4ccccc4)C(C)=C1C3(C)C)[C@]1(OC(C)=O)CO[C@@H]1C[C@@H]2O [PTX, Paclitaxel]	0.0287 ± 0.0007			significantly reduced Tau’s D eff	0.0031 ± 0.0007	4.4	~40	5
